Source: publication PMC10145360, “Antiplatelet Aggregation Properties of Cirsilineol: A Novel Inhibitor of Blood Coagulation Factor Xa” (Pharmaceuticals, 2023)

Tests used:
HUVECs = assay: MTT cell viability assay; format: cell-based, human; settings: CSL 5–50 μM
Description: First, the potential cytotoxicity of […] on HUVECs was assessed using the 3-(4,5-dimethylthiazol-2-yl)-2,5-diphenyltetrazolium bromide (MTT) assay. […] The activated partial thromboplastin time (aPTT) and prothrombin time (PT), two coagulation parameters altered by CSL in vitro, were assessed first. We used the direct FXa inhibitor rivaroxaban as a positive control for our experiments. […] In the aPTT experiments, rivaroxaban at 8.38 μM and CSL at 7.23 μM, respectively, doubled the clotting time. Each mouse group (n = 5) received intravenous injections of CSL for 4 consecutive days to validate the in vitro results in an ex vivo experiment. […] In the ex vivo aPTT assays, treatment with CSL at 0.25 mg/kg and rivaroxaban at 0.29 mg/kg, respectively, doubled the clotting time. The average blood volume was determined to be 2 mL based on an estimated circulating blood volume for mice of 72 mL/kg and an average weight of 27 g for each animal used in this investigation. As a result, the estimated concentration of CSL in the peripheral blood after each injection ([…]) was 2.5, 5, 10, or 20 μM, respectively.
A 3-(4,5-dimethylthiazol-2-yl)-2,5-diphenyltetrazoliumbromide (MTT) assay was used to measure cell viability. […] The amount of formazan salt formed was measured spectrophotometrically at 540 nm.

PRP = assay: FXa-induced platelet aggregation; format: cell-based, human; settings: FXa 52 µg/mL; PRP preincubated 5 min
Description: (§1) Figure 5 Effects of CSL on the catalytic activity and production of FXa. […] Plots show the average values of five independent measurements. (B) HUVECs pre-incubated with the indicated concentrations of CSL for 10 min were stimulated with TNF-α (10 ng/mL) for 6 h and incubated with FX (175 nM) and FVIIa (10 nM) with/without anti-tissue factor antibody (25 µg/mL). The production of FXa was characterized as described in the Methods section. (C) PRP was preincubated for 5 min with different concentrations of CSL, Riva, or the vehicle. Platelet aggregation was initiated with FXa (52 µg/mL), and the platelet aggregation was recorded using an aggregometer. Data are shown as mean values ± SD of five independent experiments. * p < 0.05 vs. TNF-α alone (B) or FXa (C). D = 0.2% DMSO, used as the vehicle control.
CSL dissolved in DMSO was incubated with human PRP for a specified time (1, 3, 5, or 10 min). Next, PRP was activated by the addition of collagen (1 μg/mL), ADP (10 μM), U46619 (6 μM), or thrombin (3 U/mL), and the amount of platelet aggregation was measured using an aggregometer (Chronolog, Havertown, PA, USA).

Protein Ca = molecular target: T1, Protein Ca (Homo sapiens, UniProt P04070); assay: Inhibitory constant, chromogenic substrate assay; format: biochemical
T1 construct: purchased Haematologic Technologies (Essex Junction, VT, USA)
T1 sequence (P04070 212-450 limits assumed): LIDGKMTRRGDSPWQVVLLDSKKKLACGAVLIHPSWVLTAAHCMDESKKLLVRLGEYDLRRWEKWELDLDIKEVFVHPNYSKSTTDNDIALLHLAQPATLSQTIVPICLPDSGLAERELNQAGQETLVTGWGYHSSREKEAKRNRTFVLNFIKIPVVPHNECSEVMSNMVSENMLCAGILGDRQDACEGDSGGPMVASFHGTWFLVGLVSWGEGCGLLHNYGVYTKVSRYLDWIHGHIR
T1 sequence (P04070 43-197 partner limits assumed): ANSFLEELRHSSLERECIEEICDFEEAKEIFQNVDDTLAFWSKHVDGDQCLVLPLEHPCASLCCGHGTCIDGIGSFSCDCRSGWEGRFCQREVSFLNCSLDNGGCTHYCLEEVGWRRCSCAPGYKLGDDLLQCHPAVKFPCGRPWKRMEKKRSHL
Description: Ki values were calculated based on chromogenic substrate experiments. CSL was employed in each assay at a minimum of seven concentrations in duplicate to obtain an inhibition curve. A total of 50 μL of substrate was combined with 25 μL of each chemical solution, inhibitor solution, or blank buffer. Before the plate was allocated into the Labsystems IEMS microtiter plate reader (Cergy Pontoise, France), 25 μL of the enzyme solution was mixed. The plate was allowed for 1 h at 37 °C before analysis. We continuously observed the formation of p-nitroaniline produced when the substrate was hydrolyzed using spectrophotometry at 405 nm. The maximum initial reaction rates were computed as the millioptical density per minute. A Dixon plot of 1/Vmax versus inhibitor concentration was used to fit the curve and determine the Ki values.

[1] = tested on: FX activation by FVIIa on HUVECs; assay: Production of FXa on the surface of TNF-α-stimulated HUVECs; format: cell-based, human; settings: pre-incubation 10 min
Description: as §1
Confluent HUVEC monolayers developed on 96-well culture plates that were stimulated with TNF-α (10 ng/mL) for 6 h after exposure to the relevant CSL concentration for 10 min. […] The reaction was stopped by adding buffer A supplemented with 10 mM EDTA, and the amount of FXa produced was determined by adding S-2765. Spectrophotometric monitoring of the absorbance over a 2 min period was performed at 405 nm. […]

[2] = tested on: myristoylated alanine-rich C kinase substrate (MARCKS) in human platelets; assay: MARCKS phosphorylation (PKC activation), western blotting; format: cell-based; settings: CSL 10 or 20 μM; ADP 10 μM or U46619 6 μM
Description: Figure 6 Effects of CSL on activation of protein kinase CPKC activation and mobilization of intracellular calcium. (A) Rinsed platelets were incubated with DMSO or CSL (10 or 20 μM) for 10 min at 37 °C, and stimulation of ADP (10 μM, left) or U46619 (6 μM, right) was given for 1 min. The phosphorylation level of MARCKS in the platelets was determined with western blotting. Representative images from each group are shown (n = 3). Densitometric intensities of each signaling pathway component normalized to β-actin or total protein. (B,C) Human platelets preloaded with Fura-2 were incubated with DMSO (D) or CSL with extracellular Ca^2+ (1 mM) for 10 min at 37 °C, and ADP ((B) 10 μM) or U46619 ((C) 6 μM) stimulation was given to induce an increase in [Ca^2+]i. Data are shown as mean values ± SD of five independent experiments. * p < 0.05 vs. ADP (A,B) or U46619 (A,C) alone. D = 0.2% DMSO, used as the vehicle control.
SDS-PAGE was used to isolate identical amounts of protein from the […] extracts, and the protein was then electrotransferred onto an immobilon membrane (Millipore, Billerica, MA, USA). The membranes underwent blocking, anti-phospho-MARCKS (Santa Cruz, CA, USA) incubation for 1.5 h at room temperature, HRP-conjugated secondary antibody incubation, and ECL detection. […]

Structure (SMILES): COc1cc(-c2cc(=O)c3c(O)c(OC)c(OC)cc3o2)ccc1O [CSL, 4,5-dihydroxy-3,6,7-trimethoxyflavone]
- cell viability (MTT) (HUVECs): no change in cell viability
- platelet aggregation brought on by FXa (PRP): dramatically reduced
- Ki (Protein Ca): > 300 µM
- Ratio = Ki enzyme/Ki Factor Xa (Protein Ca): >100
- FX activation by FVIIa [1]: inhibited FX activation in a concentration-dependent manner
- MARCKS phosphorylation in response to ADP and U46619 [2]: prevented MARCKS from becoming phosphorylated
